# Measurements published in article PMC13089524, “Development of SYK NanoBRET cellular target engagement assays for gain–of–function variants” (Frontiers in chemical biology, 2024).
# Entries after “also recorded” stand apart in the source; their conditions may differ.
# Tests used:
# [1] = molecular target: T1, SYK (Homo sapiens, UniProt P43405); assay: Eurofins DiscoverX SYK enzymatic radiometric assay; format: biochemical; settings: Km value for ATP, 9-pt dose-response
# T1 construct: purchased Eurofins DiscoverX (contract assay service)
# Excerpt: Eurofins kinase enzymatic radiometric assays were executed at the Km value for ATP in dose–response (9-pt curve) format for SYK, included in Table 1 as enzymatic IC50 values.
# [2] = molecular target: T2, SYK(WT)-NL (Homo sapiens, UniProt P43405); assay: NanoBRET assay in digitonin permeabilized HEK293 cells, SYK(WT)-NL; format: cell-based; settings: fixed concentration of tracer 8, average ± SEM, read-out: IC50, SYK(variant)-NL WT
# T2 construct: SYK tracers enable BRET with full-length SYK(WT) after digitonin permeabilization; host or cells: HEK293
# Method: We performed NanoBRET tracer optimization to determine if the SYK tracers could effectively generate a BRET signal. […] To enable the NanoBRET assay using tracer 8 with cells permeabilized by digitonin, a tracer dose–response study was performed for each SYK(GoF) variant and SYK(WT) (Figure 3A), followed by tracer titration experiments (Figure 3B; Supplementary Figure S3). […] Initially, we determined the EC50 of tracer 8 for each SYK(GoF) variant and SYK(WT). […] Plates were incubated for 25 min at room temperature if digitonin was added or for 2 h at 37°C in 5% CO2 for the intact cell NanoBRET assay. […] For intact live cells in a 96-well plate, the 3X stock solution was prepared with 30 μL of NanoBRET NanoGlo substrate, 10 μL of extracellular NanoLuc inhibitor, and 4,960 μL of Opti-MEM without phenol red. For digitonin permeabilized live cells in a 96-well plate, the 3X stock solution was prepared with 30 μL of NanoBRET NanoGlo substrate and 4,970 μL of Opti-MEM without phenol red. Raw milliBRET units (mBU) were read on a GloMax Discover system (Promega) with a donor emission wavelength of 450 nm and an acceptor emission wavelength of 600 nm. mBU were calculated by dividing the acceptor emission values (600 nm) by the donor emission values (450 nm). For NanoBRET studies with SYK, background corrected mBU were calculated by subtracting the no tracer wells from the tracer-containing wells and multiplying by 1,000.
# HEK293 cells were transfected with constructs of SYK(WT) or SYK(KD) tagged with NL on the C- or N-terminus and SYK GoF variants tagged with NL on the C-terminus. Tracer 8 (20X) was prepared from a 400 μM stock solution in DMSO with tracer dilution buffer (Promega, #N291B) and 20% DMSO, with a final assay plate concentration of 1% DMSO. 5 μL of 8 (20X) was added to each well, with exception of the no tracer control wells, with final plate concentrations of 0.5, 1, and 2 μM. 10 μL of digitonin (Fisher, 10X, 500 μg/mL) was added to specific wells to permeabilize the cells. The 10X digitonin stock was prepared by diluting a 40X DMSO solution of digitonin with room temperature Opti-MEM without phenol red, for a final assay plate concentration of 1% DMSO. SYK inhibitor stock solutions of MRL-SYKi (10X) were prepared from 10 mM DMSO stock solutions with room temperature Opti-MEM without phenol red, for final assay plate concentrations of 10 μM. Plates were incubated for 25 min at room temperature if digitonin was added or for 2 h at 37°C in 5% CO2 for the intact cell NanoBRET assay. Two technical replicates were plotted in a bar chart with the standard deviation represented as error bars on Graphpad Prism.
# [3] = molecular target: T3, SYK(S550Y)-NL (Homo sapiens, UniProt P43405, S550Y); assay: NanoBRET assay in digitonin permeabilized HEK293 cells, SYK(S550Y)-NL; format: cell-based; settings: fixed concentration of tracer 8, average ± SEM, read-out: IC50, SYK(variant)-NL S550Y
# T3 construct: host or cells: HEK293
# Method: (§1) We performed NanoBRET tracer optimization to determine if the SYK tracers could effectively generate a BRET signal. […] To enable the NanoBRET assay using tracer 8 with cells permeabilized by digitonin, a tracer dose–response study was performed for each SYK(GoF) variant and SYK(WT) (Figure 3A), followed by tracer titration experiments (Figure 3B; Supplementary Figure S3). […] Initially, we determined the EC50 of tracer 8 for each SYK(GoF) variant and SYK(WT). […] Plates were incubated for 25 min at room temperature if digitonin was added or for 2 h at 37°C in 5% CO2 for the intact cell NanoBRET assay. […] For intact live cells in a 96-well plate, the 3X stock solution was prepared with 30 μL of NanoBRET NanoGlo substrate, 10 μL of extracellular NanoLuc inhibitor, and 4,960 μL of Opti-MEM without phenol red. […] Raw milliBRET units (mBU) were read on a GloMax Discover system (Promega) with a donor emission wavelength of 450 nm and an acceptor emission wavelength of 600 nm. mBU were calculated by dividing the acceptor emission values (600 nm) by the donor emission values (450 nm). For NanoBRET studies with SYK, background corrected mBU were calculated by subtracting the no tracer wells from the tracer-containing wells and multiplying by 1,000. […]
# [4] = molecular target: T4, SYK(S550F)-NL (Homo sapiens, UniProt P43405, S550F); assay: NanoBRET assay in digitonin permeabilized HEK293 cells, SYK(S550F)-NL; format: cell-based; settings: fixed concentration of tracer 8, average ± SEM, read-out: IC50, SYK(variant)-NL S550F
# T4 construct: host or cells: HEK293
# Method: as §1
# [5] = molecular target: T5, SYK(P342T)-NL (Homo sapiens, UniProt P43405, P342T); assay: NanoBRET assay in digitonin permeabilized HEK293 cells, SYK(P342T)-NL; format: cell-based; settings: fixed concentration of tracer 8, average ± SEM, read-out: IC50, SYK(variant)-NL P342T
# T5 construct: host or cells: HEK293
# Method: as §1
# [6] = molecular target: T6, SYK(A353T)-NL (Homo sapiens, UniProt P43405, A353T); assay: NanoBRET assay in digitonin permeabilized HEK293 cells, SYK(A353T)-NL; format: cell-based; settings: fixed concentration of tracer 8, average ± SEM, read-out: IC50, SYK(variant)-NL A353T
# T6 construct: host or cells: HEK293
# Method: as §1
# [7] = molecular target: T7, SYK(M450I)-NL (Homo sapiens, UniProt P43405, M450I); assay: NanoBRET assay in digitonin permeabilized HEK293 cells, SYK(M450I)-NL; format: cell-based; settings: fixed concentration of tracer 8, average ± SEM, read-out: IC50, SYK(variant)-NL M450I
# T7 construct: host or cells: HEK293
# Method: as §1
# [8] = molecular target: T3, SYK(S550Y)-NL; assay: NanoBRET cellular target engagement assay in intact live HEK293 cells, SYK(S550Y)-NL; format: cell-based; settings: for IC50: tracer titration
# Method: (§2) NL orientations used in the respective assays are indicated. […] Plates were incubated for 25 min at room temperature if digitonin was added or for 2 h at 37°C in 5% CO2 for the intact cell NanoBRET assay. […] For intact live cells in a 96-well plate, the 3X stock solution was prepared with 30 μL of NanoBRET NanoGlo substrate, 10 μL of extracellular NanoLuc inhibitor, and 4,960 μL of Opti-MEM without phenol red. For digitonin permeabilized live cells in a 96-well plate, the 3X stock solution was prepared with 30 μL of NanoBRET NanoGlo substrate and 4,970 μL of Opti-MEM without phenol red. Raw milliBRET units (mBU) were read on a GloMax Discover system (Promega) with a donor emission wavelength of 450 nm and an acceptor emission wavelength of 600 nm. mBU were calculated by dividing the acceptor emission values (600 nm) by the donor emission values (450 nm). For NanoBRET studies with SYK, background corrected mBU were calculated by subtracting the no tracer wells from the tracer-containing wells and multiplying by 1,000.
# (§3) MRL-SYKi was used to compete away the NanoBRET signal produced with tracer 8. […] Tracer 8 was prepared in DMSO and DMEM without phenol red in 11-point dose-response format with 3 μM as the top concentration, with a final assay plate concentration of 1% DMSO. 10X stock solutions of MRL-SYKi were prepared from 10 mM DMSO stock solution with room temperature Opti-MEM without phenol red, for final assay plate concentrations of 10 μM. 10 μL of 8 (10X) was added to each well, with the exception of the no tracer control wells, and 10 μL of 10X solutions of MRL-SYKi was added to wells for tracer competition. One biological replicate was plotted in GraphPad Prism with [inhibitor] vs response (three parameters).
# (§4) MRL-SYKi was tested in 11-point dose–response format with a top concentration of 10 μM. […] The final assay plate concentrations included 1% DMSO. 5 μL of 8 (20X) was added to each well, except the no tracer control wells, and 10 μL of 10X threefold diluted solutions of MRL-SYKi was added to wells. Two biological replicates were plotted in GraphPad Prism with log[inhibitor] vs response (three parameters) with the error bars indicating standard deviation.
# (§5) Compounds were tested in 11-point dose–response format with a top concentration of 10 μM. Data are reported as IC50 ± standard error mean (SEM). One biological replicate was plotted in GraphPad Prism with log[inhibitor] vs response (three parameters), the three IC50’s were averaged and the SEM was calculated.
# [9] = molecular target: T4, SYK(S550F)-NL; assay: NanoBRET cellular target engagement assay in intact live HEK293 cells, SYK(S550F)-NL; format: cell-based
# Method: as §2, §3, §4, §5
# [10] = molecular target: T5, SYK(P342T)-NL; assay: NanoBRET cellular target engagement assay in intact live HEK293 cells, SYK(P342T)-NL; format: cell-based
# Method: as §2, §3, §4, §5
# [11] = molecular target: T8, SYK(S550F) (Homo sapiens, UniProt P43405, S550F); assay: PhosphoSens SOX peptide kinase activity assay, SYK(S550F); format: biochemical; settings: purified protein, 1 mM ATP
# T8 construct: The full-length SYK GoF variants SYK(S550F) and SYK(P342T) along with SYK(WT) were purified from insect cells (Sf9); 6His (N, cleaved yes); GST (N, cleaved yes); made in house; host or cells: Sf9 insect cells (baculovirus, pFastbac1)
# [12] = molecular target: T9, SYK(P342T) (Homo sapiens, UniProt P43405, P342T); assay: PhosphoSens SOX peptide kinase activity assay, SYK(P342T); format: biochemical; settings: purified protein, 1 mM ATP
# T9 construct: The full-length SYK GoF variants SYK(S550F) and SYK(P342T) along with SYK(WT) were purified from insect cells (Sf9); 6His (N, cleaved yes); GST (N, cleaved yes); made in house; host or cells: Sf9 insect cells (baculovirus, pFastbac1)
# [13] = system: pSYK(Y525/526) in SW480 cells stably expressing SYK(S550Y); assay: SYK phosphorylation western blot in SW480 cells stably expressing SYK(S550Y); format: cell-based
# Method: SW480 cells stably expressing S550Y variant were maintained as previously described ([Wang et al., 2021]). For SYK S550Y inhibition, cells were seeded in 12-well plate, at 10^6 cells/well. The next day, medium was replaced and MRL-SYK inhibitor was added at 10 μM and 100 nM for 20 h. Protein lysates were prepared and analyzed on Western blot as previously described ([Wang et al., 2021]).
# [14] = system: kinases of the KINOMEscan panel; settings: ref Sgc et al., 2024; cited from earlier work
# [15] = system: SRC, NTRK1, NTRK3, FGR, FYN, FER, and JAK2; settings: ref Sgc et al., 2024; cited from earlier work
# [16] = system: GPCR scan and panel of 113 enzymes and receptors; settings: at 10 μM; ref Sgc et al., 2024; cited from earlier work
# [17] = ref Altman et al., 2011; cited from earlier work
compound,measurement,setting,value
Cc1cc(Nc2nccc(C)n2)cc(-c2cnc([C@@]3(O)CC[C@H](C(=O)O)C(C)(C)C3)s2)c1 [MRL-SYKi],IC50,[1],30 nM
same,IC50,[2],10 nM
same,IC50,[3],2.1 ± 1 nM
same,IC50,[4],14 ± 5 nM
same,IC50,[5],4.6 ± 2.6 nM
same,IC50,[6],10 ± 5 nM
same,IC50,[7],29 ± 6 nM
same,Kd,"[8]; linearized Cheng-Prusoff analysis, y-intercept, tracer 8, single experiment, read-out: KD, app SYK(S550Y)",27 nM
same,IC50,"[8]; [Tracer] 7.8 nM, read-out: IC50, SYK(S550Y)-NL + 8 + MRL-SYKi",27 nM
same,IC50,"[8]; [Tracer] 15.6 nM, read-out: IC50, SYK(S550Y)-NL + 8 + MRL-SYKi",27 nM
same,IC50,"[8]; [Tracer] 31.2 nM, read-out: IC50, SYK(S550Y)-NL + 8 + MRL-SYKi",32 nM
same,IC50,"[8]; [Tracer] 62.5 nM, read-out: IC50, SYK(S550Y)-NL + 8 + MRL-SYKi",42 nM
same,IC50,"[8]; [Tracer] 125 nM, read-out: IC50, SYK(S550Y)-NL + 7 + MRL-SYKi",41 nM
same,IC50,"[8]; [Tracer] 125 nM, read-out: IC50, SYK(S550Y)-NL + 8 + MRL-SYKi",74 nM
same,IC50,"[8]; [Tracer] 250 nM, read-out: IC50, SYK(S550Y)-NL + 7 + MRL-SYKi",54 nM
same,IC50,"[8]; [Tracer] 500 nM, read-out: IC50, SYK(S550Y)-NL + 7 + MRL-SYKi",98 nM
same,IC50,"[8]; [Tracer] 1000 nM, read-out: IC50, SYK(S550Y)-NL + 7 + MRL-SYKi",220 nM
same,IC50,"[9]; intact HEK293 cells, 125 nM tracer 8, average of triplicate ± SEM, read-out: SYK(S550F) IC50",250 ± 48 nM
same,Kd,"[9]; linearized Cheng-Prusoff analysis, y-intercept, tracer 8, single experiment, read-out: KD, app SYK(S550F)",46 nM
same,IC50,"[9]; tracer titration, [Tracer] 7.8 nM, read-out: IC50, SYK(S550F)-NL + 8 + MRL-SYKi",29 nM
same,IC50,"[9]; tracer titration, [Tracer] 15.6 nM, read-out: IC50, SYK(S550F)-NL + 8 + MRL-SYKi",44 nM
same,IC50,"[9]; tracer titration, [Tracer] 31.2 nM, read-out: IC50, SYK(S550F)-NL + 8 + MRL-SYKi",77 nM
same,IC50,"[9]; tracer titration, [Tracer] 62.5 nM, read-out: IC50, SYK(S550F)-NL + 8 + MRL-SYKi",98 nM
same,IC50,"[9]; tracer titration, [Tracer] 125 nM, read-out: IC50, SYK(S550F)-NL + 8 + MRL-SYKi",157 nM
same,IC50,"[9]; tracer titration, [Tracer] 250 nM, read-out: IC50, SYK(S550F)-NL + 8 + MRL-SYKi",190 nM
same,IC50,"[10]; intact HEK293 cells, 125 nM tracer 8, average of triplicate ± SEM, read-out: SYK(P342T) IC50",410 ± 95 nM
same,Kd,"[10]; linearized Cheng-Prusoff analysis, y-intercept, tracer 8, single experiment, read-out: KD, app SYK(P342T)",179 nM
same,IC50,"[10]; tracer titration, [Tracer] 15.6 nM, read-out: IC50, SYK(P342T)-NL + 8 + MRL-SYKi",134 nM
same,IC50,"[10]; tracer titration, [Tracer] 31.2 nM, read-out: IC50, SYK(P342T)-NL + 8 + MRL-SYKi",194 nM
same,IC50,"[10]; tracer titration, [Tracer] 62.5 nM, read-out: IC50, SYK(P342T)-NL + 8 + MRL-SYKi",371 nM
same,IC50,"[10]; tracer titration, [Tracer] 125 nM, read-out: IC50, SYK(P342T)-NL + 8 + MRL-SYKi",365 nM
same,IC50,"[10]; tracer titration, [Tracer] 250 nM, read-out: IC50, SYK(P342T)-NL + 8 + MRL-SYKi",498 nM
same,IC50,[11],63 nM
same,IC50,[12],95 nM
same,pSYK(Y525/526) levels via Western blot compared to untreated cells,[13]; 100 nM for 20 h,decrease in pSYK(Y525/526) levels; also recorded: decreased pSYK(Y525/526) levels
same,pSYK(Y525/526) levels via Western blot compared to untreated cells,[13]; 10 μM for 20 h,decrease in pSYK(Y525/526) levels
same,selectivity versus the protein kinase family in the KINOMEscan panel,[14],greater than 30 fold
same,off-target kinases less potent than SYK,[15],≥ 111 fold
same,off-target inhibition,[16],no off-target inhibition
same,cellular activity,[17],< 100 nM
